The values that follow come from patent EP4755888A1 (ILAb Co., Ltd., priority 2023, dated 2025).

Data set [1] concerns PD-1/PD-L1. The data set can be described thus: PD-1/PD-L1 blockade bioassay at the cellular level (PD-L1 aAPC/CHO-K1 cells + PD-1 Effector T cells, luciferase). Type of data set: cell-based. The settings on record: Homo sapiens, T-cell; PD-L1 aAPC/CHO-K1 cells with PD-1 Effector T cells, 6 hours, luminescence; read-out: PD-1/PD-L1 Inhibitory Activity EC50. On the procedure:
In order to evaluate the effect of the compounds of the present invention, synthesized according to the above Preparation Examples, on blocking signal transduction between PD-1/PD-L1-expressing cells, a PD-1/PD-L1 blockade bioassay was conducted as described below.
Specifically, PD-L1 aAPC/CHO-K1 cells engineered to express human PD-L1 were seeded into a 96-well white plate and cultured for one day. On the following day, the compounds were prepared in a 96-well plate by serial dilution at concentrations starting from 10 µM and 5 µM, followed by 1/4 dilutions to obtain a total of ten concentrations. The culture medium in the plate seeded with the PD-L1 aAPC/CHO-K1 cell line was removed, and 40 µL of each prepared compound solution was added to a 96-well plate. Thereafter, 40 µL of PD-1 Effector T cell line engineered to express human PD-1 was additionally added, and then cultured for 6 hours. After 6 hours, 80 µL of Bio-Glo luciferase buffer was added to each well, followed by incubation at room temperature for 10 minutes, and luminescence was measured using a microplate reader.

In data set [2] the target is T1, PD-L1 expressed on the cell surface (MC38 hPD-L1) (Homo sapiens, UniProt Q9NZQ7).
T1 construct: expressed in transfected cells; host or cells: MC38 mouse colon cancer cell line expressing human PD-L1
Nature of the data set: Internalization of cell surface PD-L1, flow cytometry with fluorescent staining. The settings on record: MC38 hPD-L1 cells, 1 µM, 4 hours; untreated 90% to 99%. The data set is classed as cell-based. As to the method:
In order to evaluate the internalization of cell surface PD-L1 induced by the compounds of the present invention synthesized according to the above Preparation Examples, a flow cytometry experiment using fluorescent staining was conducted as described below.
Specifically, a mouse colon cancer cell line expressing human PD-L1 (MC38 hPD-L1) was seeded into a 24-well plate at a density of 5 x 10^5 cells per well, followed by treatment with Compounds 206 to 227 at a concentration of 1 µM and incubation for 4 hours. After 4 hours, the compound-treated MC38 hPD-L1 cells were collected and stained with PE anti-hPD-L1 fluorecence at room temperature for 30 minutes. The rate of PD-L1 expression on the cell surface was then quantified using flow cytometry.
(Flow cytometry measures light scatter and fluorescence of single cells or particles in a stream.)

Another data set addresses hPD-L1 (Homo sapiens, UniProt Q9NZQ7). Nature of the data set: TR-FRET dimerization of hPD-L1 molecules. The data set is classed as biochemical. The following applies: for EC50: Fc tag-hPD-L1 and His tag-hPD-L1, twelve concentrations from 10 µM; for induction of dimerization of hPD-L1 molecules (in words): summary of Table 3. As to the method: In order to evaluate the dimerization of hPD-L1 molecules induced by the compounds of the present invention synthesized according to the above Preparation Examples, a TR-FRET (Time-Resolved Fluorescence Energy Transfer) experiment was performed as described below.
Specifically, the compounds were prepared in a 96-well plate by serial dilution starting from 10 µM with 1/3 dilutions to obtain a total of twelve concentrations. Thereafter, 2 µL of each compound solution was added to a 384-well plate. Fc tag-hPD-L1 protein and His tag-hPD-L1 protein were each prepared at a 1x concentration, mixed at a ratio of 1:1 of above two proteins, and 8 µL of the mixed protein solution was added to each well of the 384-well plate containing the compounds, followed by incubation at room temperature for one day. On the following day, Anti-6His-Tb Cryptate Gold antibody and Anti-human IgG-XL665 antibody were each prepared at a 1x concentration, mixed at a ratio of 1:1, and 10 µL of the mixed antibody solution was added to each well of the 384-well plate containing the compounds and proteins, followed by incubation at room temperature for 2 hours. Upon completion of the reaction, fluorescence signals at wavelengths of 620 nm and 665 nm were measured using a microplate reader.
Background: In TR-FRET formats the signal depends on donor and acceptor labels being close together.

Data set [3] deals with PD-1/PD-L1 (Homo sapiens, UniProt Q9NZQ7). The data set can be described thus: TR-FRET PD-1/PD-L1 binding inhibition at the molecular level (free proteins). The settings on record: Tag1-PD-L1 and Tag2-PD-1 proteins, twelve concentrations from 200 nM, 2 hours at room temperature, read-out: FRET assay (IC50). An outline of the steps:
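HTRF read-out at 665/620 nm after 2 h at room temperature. Detection used anti-Tag1 Eu cryptate plus anti-Tag2 XL665 antibodies. Tagged PD-L1 and PD-1 proteins were pre-mixed with compound across twelve […] 1:2 dilutions starting at 200 nM.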

The next data set has as its system MC38 hPD-L1. The data set can be described thus: Tumor growth inhibition in MC38 hPD-L1 subcutaneous mouse model. Type of data set: in vivo. The settings on record: 50 mg/kg intraperitoneally once daily, female C57BL/6 mice. As to the method: In order to evaluate whether the tumor inhibitory effects of the compounds synthesized according to the above Preparation Examples are also effective in vivo, animal experiments were conducted as described below.
A mouse colon cancer cell line expressing human PD-L1 (MC38 hPD-L1) was prepared at a density of 1.25 x 10^6 cells in 100 µL of DPBS and inoculated subcutaneously into the flank of 6-week-old female C57BL/6 mice. When the average tumor volume reached approximately 50 mm^3, the mice were divided into three experimental groups, with eight mice per group. Vehicle and Compound 218 (50 mg/kg) were administered intraperitoneally once daily, while Durvalumab (anti-PD-L1 mAb) was administered intraperitoneally twice per week. Tumor volume and body weight were measured every three days.

In the next data set the test system is tumor. Nature of the data set: tumor growth inhibition in a group administered with the compound (FIG. 1). The data set is classed as in vivo. The following applies: graph of FIG. 1; group administered with Compound 218; no numbers printed in this part.

The structures appear in SMILES notation. Bounds are passed on as bounds.

As usually defined, the IC50 is the concentration needed to halve the response being measured.

T1 sequence (Q9NZQ7 19-290): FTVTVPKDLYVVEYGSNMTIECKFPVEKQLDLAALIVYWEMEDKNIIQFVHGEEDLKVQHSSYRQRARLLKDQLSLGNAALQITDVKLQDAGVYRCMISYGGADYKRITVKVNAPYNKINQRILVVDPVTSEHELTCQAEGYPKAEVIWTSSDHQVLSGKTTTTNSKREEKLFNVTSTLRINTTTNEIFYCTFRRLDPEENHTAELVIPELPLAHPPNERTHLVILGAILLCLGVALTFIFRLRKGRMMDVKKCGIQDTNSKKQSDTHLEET
Sequence of PD-1/PD-L1 (Homo sapiens, UniProt Q9NZQ7) (Q9NZQ7 19-238 limits assumed): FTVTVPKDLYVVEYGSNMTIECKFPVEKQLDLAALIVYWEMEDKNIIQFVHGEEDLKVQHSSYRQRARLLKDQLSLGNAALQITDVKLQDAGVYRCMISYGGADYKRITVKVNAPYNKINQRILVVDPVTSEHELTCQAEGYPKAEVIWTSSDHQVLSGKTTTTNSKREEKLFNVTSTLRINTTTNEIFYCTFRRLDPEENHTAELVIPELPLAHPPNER
Sequence of hPD-L1 (Q9NZQ7 19-238 limits assumed): as above
Sequence of hPD-L1 (Q9NZQ7 19-238 limits assumed): as above

As to `O=C(Nc1cccc(-c2cccc(Nc3nccc4cc(CN5CC[C@H](O)C5)cnc34)c2Cl)c1Cl)c1cc2n(n1)CCC[C@H]2N1CCC(C(=O)O)CC1` [Compound 227, 1-((R)-2-((2,2'-dichloro-3'-((3-(((S)-3-hydroxypyrrolidin-1-yl)methyl)-1,7-naphthyridin-8-yl)amino)-[1,1'-biphenyl]-3-yl)carbamoyl)-4,5,6,7-tetrahydropyrazolo[1,5-a]pyridin-4-yl)piperidine-4-carboxylic acid], the EC50 in the data set with PD-1/PD-L1 [1] came out at 20.2 nM. The “Cell surface PD-L1 expression level (%)” value in data set [2] came to 1.6%. For the same molecule, on hPD-L1, the EC50 worked out at 26.2 nM and the “induction of dimerization of hPD-L1 molecules (in words)” value is “effectively induced dimerization of hPD-L1 molecules at the nanomolar level”. Moreover, the IC50 on PD-1/PD-L1 [3] fell in the range of 10 to 100 nM.
Taken in the same sequence, the figures for `Cc1c(NC(=O)c2ccc(CN3CC[C@@H](O)C3)cn2)cccc1-c1cccc(NC(=O)c2cc3n(n2)CCC[C@@H]3N2CC[C@@H](O)C2)c1C` [Compound 216, (S)-4-((R)-3-hydroxypyrrolidin-1-yl)-N-(3'-(5-(((R)-3-hydroxypyrrolidin-1-yl)methyl)picolinamido)-2,2'-dimethyl-[1,1'-biphenyl]-3-yl)-4,5,6,7-tetrahydropyrazolo[1,5-a]pyridine-2-carboxamide] were 31.6 nM, 3.0%, 25.2 nM, “effectively induced dimerization of hPD-L1 molecules at the nanomolar level” and under 10 nM.
Consider `O=C(Nc1cccc(-c2cccc(NC(=O)c3cc4n(n3)CCC[C@@H]4N3CC[C@@H](C(=O)O)C3)c2Cl)c1Cl)c1ccc(CNCCO)cn1` [Compound 208, (R)-1-((S)-2-((2,2'-dichloro-3'-(5-(((2-hydroxyethyl)amino)methyl)picolinamido)-[1,1'-biphenyl]-3-yl)carbamoyl)-4,5,6,7-tetrahydropyrazolo[1,5-a]pyridin-4-yl)pyrrolidine-3-carboxylic acid], for which the EC50 in the data set with PD-1/PD-L1 [1] is 12.6 nM. Moreover, the “Cell surface PD-L1 expression level (%)” value in data set [2] was found to be 0.5%. The IC50 at PD-1/PD-L1 [3] is under 10 nM.
The corresponding values for `O=C(O)CN[C@H]1CCCn2nc(C(=O)Nc3cccc(-c4cccc(NC(=O)c5ccc(CNCCO)cn5)c4Cl)c3Cl)cc21` [Compound 220, (S)-2-((2-((2,2'-dichloro-3'-(5-(((2-hydroxyethyl)amino)methyl)picolinamido)-[1,1'-biphenyl]-3-yl)carbamoyl)-4,5,6,7-tetrahydropyrazolo[1,5-a]pyridin-4-yl)amino)acetic acid] are 13.6 nM, 0.6% and under 10 nM.
Taken in the same sequence, the figures for `O=C(O)CN[C@H]1CCCn2nc(C(=O)Nc3cccc(-c4cccc(NC(=O)c5ccc(CN6CC[C@@H](O)C6)cn5)c4Cl)c3Cl)cc21` [Compound 222, 2-(((S)-2-((2,2'-dichloro-3'-(5-(((R)-3-hydroxypyrrolidin-1-yl)methyl)picolinamido)-[1,1'-biphenyl]-3-yl)carbamoyl)-4,5,6,7-tetrahydropyrazolo[1,5-a]pyridin-4-yl)amino)acetic acid] were 34.8 nM, 0.3% and under 10 nM.
With `O=C(O)CN[C@H]1CCCn2nc(C(=O)Nc3cccc(-c4cccc(Nc5nccc6cc(CN7CC[C@@H](O)C7)cnc56)c4Cl)c3Cl)cc21` [Compound 218, 2-(((S)-2-((2,2'-dichloro-3'-((3-(((R)-3-hydroxypyrrolidin-1-yl)methyl)-1,7-naphthyridin-8-yl)amino)-[1,1'-biphenyl]-3-yl)carbamoyl)-4,5,6,7-tetrahydropyrazolo[1,5-a]pyridin-4-yl)amino)acetic acid], the EC50 in the data set with PD-1/PD-L1 [1] is 19.2 nM. Further, the “Cell surface PD-L1 expression level (%)” value in data set [2] amounted to 0.3%. On hPD-L1, the EC50 worked out at 6.1 nM and the “induction of dimerization of hPD-L1 molecules (in words)” value is “effectively induced dimerization of hPD-L1 molecules at the nanomolar level”. For the same molecule, the “tumor growth inhibition compared to the vehicle-treated group” value with MC38 hPD-L1 (Figure 1) is “significant inhibition of tumor growth”. Besides, in the data set on MC38 hPD-L1 (Figure 2), the “change in body weight of mice” value is reported as “no change in body weight”. The “tumor growth inhibitory effect” value in the data set with tumor is recorded as “tumor growth inhibitory effect”. Moreover, the IC50 on PD-1/PD-L1 [3] is under 10 nM.
Consider `Cc1c(NC(=O)c2ccc(CN3CC[C@@H](O)C3)cn2)cccc1-c1cccc(NC(=O)c2cc3n(n2)CCC[C@@H]3NCCO)c1C` [Compound 214, (S)-4-((2-hydroxyethyl)amino)-N-(3'-(5-(((R)-3-hydroxypyrrolidin-1-yl)methyl)picolinamido)-2,2'-dimethyl-[1,1'-biphenyl]-3-yl)-4,5,6,7-tetrahydropyrazolo[1,5-a]pyridine-2-carboxamide], for which the EC50 in the data set with PD-1/PD-L1 [1] came to 40.1 nM. For the same molecule, the “Cell surface PD-L1 expression level (%)” value in data set [2] was 5.7%. Further, the IC50 on PD-1/PD-L1 [3] is under 10 nM.
For `Cc1c(NC(=O)c2cc3n(n2)CCC[C@@H]3N2CC[C@@H](C(=O)O)C2)cccc1-c1cccc(Nc2nc(C(F)F)nc3cc(CN4CC[C@@H](O)C4)cnc23)c1C` [Compound 210, (R)-1-((S)-2-((3'-((2-(difluoromethyl)-7-(((R)-3-hydroxypyrrolidin-1-yl)methyl)pyrido[3,2-d]pyrimidin-4-yl)amino)-2,2'-dimethyl-[1,1'-biphenyl]-3-yl)carbamoyl)-4,5,6,7-tetrahydropyrazolo[1,5-a]pyridin-4-yl)pyrrolidine-3-carboxylic acid], in the data set on PD-1/PD-L1 [1], the EC50 is 16 nM. Moreover, the “Cell surface PD-L1 expression level (%)” value in data set [2] amounted to 3.2%. Moreover, on PD-1/PD-L1 [3], the IC50 was under 10 nM.
